Experimental data: publication PMC12500448 (Frontiers in Pharmacology, 2025)
Like-named read-outs stand apart in the source and are kept apart here.

What was measured:
[1] = tested on: rat liver microsomes (RLM); test: Screening of 10 drugs for inhibition of quetiapine metabolism (formation of N-desalkylquetiapine) in RLM; assay type: in vitro ADME; conditions: RLM 0.3 mg/mL, drug 100 μM, quetiapine at Km
Protocol: (§1) 200 μL enzymatic kinetic incubation system was adjusted according to the measurement purpose with the corresponding incubation conditions. […] The mixture without NADPH was pre-incubated at 37 °C in a water bath for 5 min, then 10 μL NADPH (20 mM) was added to initiate the reaction. Following a further 30 min incubation, the reaction was terminated by freezing at −80 °C. Prior to sample thawing, 400 μL acetonitrile was added to precipitate proteins, and 20 μL lurasidone (200 ng/mL) was added as IS. After complete dissolution of the samples, they were vortexed for 2 min and centrifuged for 10 min (13,000 rpm), then the supernatants were taken for UPLC-MS/MS detection and analysis.

[2] = tested on: human liver microsomes (HLM); conditions: 1-200 μM quetiapine
Protocol: as §1
(§2) The Michaelis-Menten curves, IC50 curves, Lineweaver–Burk plots, and the mean plasma concentration–time curves were generated using GraphPad Prism software (version 9.5; GraphPad Software Inc., San Diego, CA). The pharmacokinetic parameters were derived using the non-compartmental model analysis with Drug and Statistics software (version 3.0 software, Mathematical Pharmacology Professional Committee of China, Shanghai, China).

[3] = tested on: rat liver microsomes (RLM); conditions: 1-200 μM quetiapine
Protocol: as §1, §2

[4] = Pharmacokinetics of quetiapine and N-desalkylquetiapine in rats with or without nicardipine; assay type: in vivo, Sprague-Dawley rats; conditions: rat; for CL/F: read-out: CLz/F (converted)
Protocol: Due to the similarity between their hepatic enzyme system and humans, Sprague-Dawley male rats are widely used in pharmacokinetics ([Martignoni et al., 2006]; [Riccardi et al., 2018]). This pharmacokinetic study was conducted on eight healthy male Sprague-Dawley rats provided by the Animal Experiment Center of the First Affiliated Hospital of Wenzhou Medical University (Zhejiang, China). Animals were housed in an environment with a temperature of 20 °C–26 °C, relative humidity of 55% ± 15%, and a light-dark cycle of 12 h/day, in strict following the guidelines for the care and use of laboratory animals by the National Research Council. The research protocol was adhered to the ARRIVE guidelines and was approved by the Experimental Animal Ethics Committee of the First Affiliated Hospital of Wenzhou Medical University (WYYY-IACUC-AEC-2023–064). Before the formal experiment, in order to mitigate the influence of food on drug absorption, Sprague-Dawley rats were fasted for 12 h and then randomly divided into two groups. Nicardipine and quetiapine are dissolved using corn oil. […] Following centrifugation at 8,000 rpm for 10 min, 100 μL of plasma supernatant was precisely taken into a new clean and dry 1.5 mL EP tube, where 300 μL acetonitrile and 10 μL IS working solution (200 ng/mL) were added, and after vortexing and centrifugation, the supernatants were taken for injection and analysis.

[5] = treatment of refractory depression; ref Reif et al., 2023; cited from earlier work
[6] = parameters: method as in Chen et al., 2024; conditions: in vivo; ref Chen et al., 2024; cited from earlier work
[7] = male, Sprague-Dawley, plasma, po, 15 mg/kg, quetiapine in plasma, quetiapine 15 mg/kg + nicardipine 4 mg/kg by gavage 30 min before
[8] = male, Sprague-Dawley, plasma, po, 15 mg/kg, quetiapine in plasma, quetiapine 15 mg/kg by gavage alone
[9] = metabolite N-desalkylquetiapine in plasma, quetiapine 15 mg/kg + nicardipine 4 mg/kg by gavage
[10] = metabolite N-desalkylquetiapine in plasma, quetiapine 15 mg/kg by gavage alone

For `O=c1c(O)c(-c2ccc(O)c(O)c2)oc2cc(O)cc(O)c12` [quercetin], the “inhibition rate against quetiapine metabolism” value [1] was 61.47%.
`OCCOCCN1CCN(C2=Nc3ccccc3Sc3ccccc32)CC1` [quetiapine] gave a Km [2] of 50.8 µM, a Km [3] of 48.8 µM and an AUC(0-inf) [4, 7] of 108 ± 31.4 ng·h/mL. The half-life [4, 7] was 5.16 ± 2.82 h, the AUC(0-t) ([4]; male, Sprague-Dawley, plasma, po, 15 mg/kg, quetiapine in plasma, quetiapine 15 mg/kg + nicardipine 4 mg/kg by gavage 30 min before, read-out: AUC(0-t)) was 106 ± 30.3 ng·h/mL and the CL/F [4, 7] was 2460 mL/min/kg. For the same molecule, the Cmax ([4]; male, Sprague-Dawley, plasma, po, 15 mg/kg, quetiapine in plasma, quetiapine 15 mg/kg + nicardipine 4 mg/kg by gavage 30 min before, read-out: Cmax) was 28.8 ± 10.7 ng/mL, the Tmax ([4]; male, Sprague-Dawley, plasma, po, 15 mg/kg, quetiapine in plasma, quetiapine 15 mg/kg + nicardipine 4 mg/kg by gavage 30 min before, read-out: Tmax) was 0.88 ± 0.52 h and the AUC(0-inf) [4, 8] was 38.1 ± 6.91 ng·h/mL. For the same molecule, the half-life [4, 8] was 5.12 ± 3.56 h, the AUC(0-t) ([4]; male, Sprague-Dawley, plasma, po, 15 mg/kg, quetiapine in plasma, quetiapine 15 mg/kg by gavage alone, read-out: AUC(0-t)) was 36 ± 5.48 ng·h/mL and the CL/F [4, 8] was 6730 mL/min/kg. For the same molecule, the Cmax ([4]; male, Sprague-Dawley, plasma, po, 15 mg/kg, quetiapine in plasma, quetiapine 15 mg/kg by gavage alone, read-out: Cmax) was 12 ± 2.28 ng/mL, the Tmax ([4]; male, Sprague-Dawley, plasma, po, 15 mg/kg, quetiapine in plasma, quetiapine 15 mg/kg by gavage alone, read-out: Tmax) was 0.94 ± 0.52 h and the “incidence of adverse reactions” value [5] was 78.0%. The “incidence of serious adverse reactions” value [5] was 5.7%.
With `c1ccc2c(c1)N=C(N1CCNCC1)c1ccccc1S2` [N-desalkylquetiapine] the “AUC0−∞” value [4, 9] was 80.29 ± 27.62 ng·h/mL, the “AUC(0-t)” value [4, 9] was 70.19 ± 22.75 ng·h/mL and the CLz/F [4, 9] was 3499.8 ± 1541 mL/min/kg. For the same molecule, the Cmax [4, 9] was 14.98 ± 11.59 ng/mL, the Tmax [4, 9] was 0.69 ± 0.55 h and the t1/2 [4, 9] was 8.54 ± 5.49 h. The “AUC0−∞” value [4, 10] was 161.47 ± 62.64 ng·h/mL, the “AUC(0-t)” value [4, 10] was 160.62 ± 63.16 ng·h/mL and the CLz/F [4, 10] was 1692 ± 501.3 mL/min/kg. It also gave a Cmax [4, 10] of 50.66 ± 32.77 ng/mL, a Tmax [4, 10] of 0.31 ± 0.13 h and a t1/2 [4, 10] of 3.19 ± 1.76 h.
For `COC(=O)C1=C(C)NC(C)=C(C(=O)OCCN(C)Cc2ccccc2)C1c1cccc([N+](=O)[O-])c1` (stereo not shown) [nicardipine], the “increase of AUC0−∞ of almonertinib” value [6] is given as 0.87 fold and the “increase of AUC(0-t) of almonertinib” value [6] is given as 0.95 fold.
